What was measured:
Type in all cases: in vitro ADME
CYP1A2 = target: T1, CYP1A2 (Homo sapiens, UniProt P05177); experiment: CYP inhibition assay in pooled human liver microsomes (phenacetin); details: human liver microsomes 0.2 mg/mL, substrate phenacetin; read-out: CYP 1A2 (μM) IC50
T1 construct: 150-donor pooled human liver microsomes (purchased from Corning, Cat. No. 452117); tissue Corning 452117; host or cells: 150-donor pooled human liver microsomes
T1 sequence (P05177 1-516): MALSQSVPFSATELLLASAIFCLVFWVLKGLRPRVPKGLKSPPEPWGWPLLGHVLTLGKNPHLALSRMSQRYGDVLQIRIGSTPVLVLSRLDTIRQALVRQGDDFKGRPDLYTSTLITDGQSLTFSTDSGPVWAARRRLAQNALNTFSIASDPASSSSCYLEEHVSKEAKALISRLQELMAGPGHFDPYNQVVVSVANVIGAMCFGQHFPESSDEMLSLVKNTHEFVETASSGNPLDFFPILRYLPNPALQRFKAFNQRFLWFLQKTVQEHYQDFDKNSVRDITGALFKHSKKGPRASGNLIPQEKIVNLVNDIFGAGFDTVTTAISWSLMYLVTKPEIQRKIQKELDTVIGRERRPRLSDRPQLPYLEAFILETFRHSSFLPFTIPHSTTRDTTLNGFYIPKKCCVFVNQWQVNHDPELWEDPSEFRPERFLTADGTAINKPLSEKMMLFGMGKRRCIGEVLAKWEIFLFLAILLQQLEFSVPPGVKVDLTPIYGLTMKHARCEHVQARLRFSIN
Method: (§1) The metabolic reactions of representative substrates of 5 major human CYP subtypes (CYP1A2, CYP2C9, CYP2C19, CYP2D6, CYP3A4/5) were evaluated using 150-donor pooled human liver microsomes (purchased from Corning, Cat. No. 452117). The effects of different concentrations of the test compounds on the metabolic reactions of phenacetin (CYP1A2), diclofenac sodium (CYP2C9), S-mephenytoin (CYP2C19), bufuralol hydrochloride (CYP2D6) and midazolam (CYP3A4/5) were determined by liquid chromatography-tandem mass spectrometry (LC/MS/MS).
(§2) 30 μM phenacetin, 10 μM diclofenac sodium, 35 μM S-mephenytoin, 5 μM bufuralol hydrochloride, 3 μM midazolam, 1 mM NADPH, and test compounds (at concentrations of 0.1 μmol/L, 0.3 μmol/L, 1 μmol/L, 3 μmol/L, 10 μmol/L, and 30 μmol/L, respectively) or positive compound or blank were incubated with 200 μL of a reaction system of pooled human liver microsomes (0.2 mg/mL) (100 mmol/L phosphate buffer, pH 7.4, containing 0.3% by volume of DMSO, 0.6% by volume of acetonitrile, and 0.1% by volume of methanol) at 37° C. for 5 min. Then, 200 μL of acetonitrile containing 3% formic acid and 40 nM internal standard verapamil was added, and the mixture was centrifuged at 4000 rpm for 50 min. The mixture was cooled on ice for 20 min and centrifuged at 4000 rpm for 20 min to precipitate the protein. 200 μL of the supernatant was analyzed by LC/MS/MS.
(§3) The peak area was calculated from the chromatogram. The residual activity rate (%) was calculated by the following formula:
(§4) peak area rate=peak area of metabolite/peak area of internal standard
(§5) residual activity rate (%)=peak area proportion of the test compound group/peak area proportion of the blank group
(§6) The half maximal inhibitory concentrations (IC50) against CYP were calculated by Excel XLfit 5.3.1.3.

CYP2C9 = target: T2, CYP2C9 (Homo sapiens, UniProt P11712); experiment: CYP inhibition assay in pooled human liver microsomes (diclofenac sodium); details: human liver microsomes 0.2 mg/mL, substrate diclofenac sodium; read-out: CYP 2C9 (μM) IC50
T2 construct: 150-donor pooled human liver microsomes (purchased from Corning, Cat. No. 452117); tissue Corning 452117; host or cells: 150-donor pooled human liver microsomes
T2 sequence (P11712 whole entry): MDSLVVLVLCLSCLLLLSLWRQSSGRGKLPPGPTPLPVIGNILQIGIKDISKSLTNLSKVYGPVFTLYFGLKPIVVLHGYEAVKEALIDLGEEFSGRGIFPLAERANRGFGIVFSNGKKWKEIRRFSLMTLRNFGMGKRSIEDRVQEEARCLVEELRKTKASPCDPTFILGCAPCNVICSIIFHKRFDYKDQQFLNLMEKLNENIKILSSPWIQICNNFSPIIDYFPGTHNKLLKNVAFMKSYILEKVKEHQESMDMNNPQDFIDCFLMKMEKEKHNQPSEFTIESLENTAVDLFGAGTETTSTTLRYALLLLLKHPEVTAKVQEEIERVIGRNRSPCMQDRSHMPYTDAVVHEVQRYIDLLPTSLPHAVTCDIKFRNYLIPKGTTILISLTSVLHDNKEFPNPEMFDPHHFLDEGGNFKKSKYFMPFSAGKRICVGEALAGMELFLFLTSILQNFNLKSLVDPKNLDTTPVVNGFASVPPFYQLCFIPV
Method: as §1, §2, §3, §4, §5, §6

CYP2D6 = target: T3, CYP2D6 (Homo sapiens, UniProt P10635); experiment: CYP inhibition assay in pooled human liver microsomes (bufuralol hydrochloride); details: human liver microsomes 0.2 mg/mL, substrate bufuralol hydrochloride; read-out: CYP 2D6 (μM) IC50
T3 construct: 150-donor pooled human liver microsomes (purchased from Corning, Cat. No. 452117); tissue Corning 452117; host or cells: 150-donor pooled human liver microsomes
T3 sequence (P10635 whole entry): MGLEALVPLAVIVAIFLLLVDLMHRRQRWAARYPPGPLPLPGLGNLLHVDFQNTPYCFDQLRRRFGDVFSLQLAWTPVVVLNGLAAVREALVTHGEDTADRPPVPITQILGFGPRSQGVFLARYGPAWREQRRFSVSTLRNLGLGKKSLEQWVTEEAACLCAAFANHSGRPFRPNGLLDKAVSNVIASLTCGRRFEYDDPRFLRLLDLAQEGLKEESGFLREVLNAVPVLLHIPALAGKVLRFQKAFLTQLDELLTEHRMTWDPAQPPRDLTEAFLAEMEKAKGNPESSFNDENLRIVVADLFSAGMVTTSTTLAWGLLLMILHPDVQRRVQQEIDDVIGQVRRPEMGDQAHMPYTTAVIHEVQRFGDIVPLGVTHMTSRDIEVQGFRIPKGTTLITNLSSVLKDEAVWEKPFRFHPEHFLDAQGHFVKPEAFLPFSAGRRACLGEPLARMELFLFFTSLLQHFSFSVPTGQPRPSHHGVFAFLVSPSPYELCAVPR
Method: as §1, §2, §3, §4, §5, §6

CYP3A4/5 = experiment: CYP inhibition assay in pooled human liver microsomes (midazolam); details: pH 7.4, probe midazolam (3 μM), human liver microsomes 0.2 mg/mL, substrate midazolam, read-out: CYP 3A4/5 (μM) IC50
Method: as §1, §2, §3, §4, §5, §6

SMILES	IC50 (CYP1A2)	IC50 (CYP2C9)	IC50 (CYP2D6)	IC50 at 5 min (CYP3A4/5)
COC(=O)N1CCO[C@@H](Cc2c(-c3c(F)cc(N4CCCC4=O)cc3F)nc3cc(C)ccn23)C1 [Compound 9, Methyl (S)-2-((2-(2,6-difluoro-4-(2-carbonylpyrrolidin-1-yl)phenyl)-7-methylimidazo[1,2-a]pyridin-3-yl)methyl)morpholine-4-carboxylate]	> 30 µM	1.48 µM	> 30 µM	12.9 µM
CC(=O)N1CCO[C@@H](Cn2c(-c3ccc(N4CCCC4=O)cc3Cl)nc3cc(C)ccc32)C1 [Compound 3, (S)-1-(4-(1-((4-acetylmorpholin-2-yl)methyl)-5-methyl-1H-benzo[d]imidazol-2-yl)-3-chlorophenyl)pyrrolidin-2-one]	> 30 µM	> 30 µM	> 30 µM	> 30 µM
CC(=O)N1CCOC(Cn2c(-c3c(F)cc(N4CCCC4=O)cc3F)nc3cc(C)ccc32)C1 (stereo in doubt) [Compound 1]	> 30 µM	21.7 µM	> 30 µM	> 30 µM
[2H]C([2H])([2H])c1ccc2c(c1)nc(-c1c(F)cc(N3CCCC3=O)cc1F)n2C[C@H]1CN(C(C)=O)CCO1 [Compound 14, (S)-1-(4-(1-((4-acetylmorpholin-2-yl)methyl)-5-(methyl-d3)-1H-benzo[d]imidazol-2-yl)-3,5-difluorophenyl)pyrrolidin-2-one]	> 30 µM	21.9 µM	> 30 µM	> 30 µM
COC(=O)N1CCOC(Cn2c(-c3c(F)cc(N4CCCC4=O)cc3F)nc3cc(C)ccc32)C1 (stereo not shown) [Compound 2, Methyl 2-((2-(2,6-difluoro-4-(2-carbonylpyrrolidin-1-yl)phenyl)-5-methyl-1H-benzo[d]imidazol-1-yl)methyl)morpholine-4-carboxylate]	> 30 µM	3.06 µM	> 30 µM	> 30 µM
CC(=O)N1CCO[C@@H](Cn2c(-c3c(F)cc(N4CCCC4=O)cc3Cl)nc3cc(C)ccc32)C1 [Compound 4, (S)-1-(4-(1-((4-acetylmorpholin-2-yl)methyl)-5-methyl-1H-benzo[d]imidazol-2-yl)-3-chloro-5-fluorophenyl)pyrrolidin-2-one]	> 30 µM	> 30 µM	> 30 µM	> 30 µM
CC(=O)N1CCO[C@@H](Cn2c(-c3c(F)cc(N4CCCC4=O)cc3F)nc3cc(Cl)ccc32)C1 [Compound 10, (S)-1-(4-(1-((4-acetylmorpholin-2-yl)methyl)-5-chloro-1H-benzo[d]imidazol-2-yl)-3,5-difluorophenyl)pyrrolidin-2-one]	> 30 µM	> 30 µM	> 30 µM	> 30 µM

Reference: patent publication US20230250095A1, “BENZIMIDAZOLE DERIVATIVES, PREPARATION METHOD THEREFOR AND MEDICAL USE THEREOF” (TUOJIE BIOTECH(SHANGHAI) CO., LTD., priority 2020, published 2023)
